Measurements as given in US7795285B2, “Anti-trypanosomiasis agent” (Fujifilm Corporation, priority 2004, dated 2010).
pIC50: −log10 of the molar value. Read-outs that look alike come from different tables or passages of the source.

Key:
Format in all cases: cell-based
[1] = tested on: Trypanosoma brucei rhodensiense (STIB 900 strain); experiment: African trypanosome protozoa growth inhibition screening test (Alamar Blue, 72 hours); details: for pIC50: Trypanosoma brucei, read-out: 50% growth inhibiting concentration Trypanosoma brucei rhod.; for Selective toxicity: chemotherapy index, rat L6 cells versus African trypanosome protozoa
Procedure: In the present example, protozoa of Trypanosoma brucei rhodensiense (STIB 900 strain), a trypamastigote living in blood stream, was used. The medium used in the experiment was a MEM medium which was sterilized with a filter and supplemented with 25 mM N-2-hydroxyethylpiperazine-2-ethansulfonic acid (HEPES), 1 g/L glucose, 1% MEM non-essential amino acid, 0.2 mM 2-mercaptoethanol, 2 mM sodium pyruvate, 0.1 mM hypoxanthine, and 15% heat-treated horse serum. The protozoa was cultured in an atmosphere of CO2 concentration 5%, at a temperature of 37° C.
The compounds of the present invention to be used in the present test and the positive target drug (melarsoprol) were dissolved in DMSO to make a test solution of a predetermined concentration. A medium containing 8×10^3 protozoa, and a test solution containing a drug of a predetermined concentration or a drug-free DMSO were added to wells of a 96-well culture plate, and subsequently, medium was added so that the amount in each well becomes 100 μL. Test solutions were taken by duplicates. After culturing the culture plate for 72 hours in an incubator, growth inhibition activity was tested. Test was conducted as follows.
10 μL of Alamar Blue aqueous solution was added to each well, and the resultant was further cultured for 2 hours. Next, the culture plate was placed on a fluorescent micro-plate reader (Spectramax Gemeni XS; US Molecular Device), radiated at an excited wavelength of 536 nm. Fluorescent intensity was measured at 588 nm, to calculate the trypanosome protozoa infected rate of the test solution added-group, and of the control group. From the protozoan infection rate obtained in the above, growth inhibition rate was calculated with the following formula, to obtain a 50% growth inhibition concentration (IC50). Growth inhibition rate (%)={1−(b−a)/(c−a)}×100 a: early infection rate b: infection rate when test solution was added c: infection rate of the control
Chemotherapy index used as an index of selective toxicity against African trypanosome protozoa was calculated with the following formula, to determine drug efficacy.

[2] = Growth inhibition test of rat L6 cells (Alamar Blue, 72 hours); details: 72 hours culture, Table 1, read-out: 50% growth inhibiting concentration Cytotoxicity L6
Procedure: (§1) Rat derived-L6 cells (rat skeletal myoblast cell) were used. As medium, RPMI1640 medium was supplemented so that L-glutamin (200 mM) is 1%, and fetal bovine serum 10%, and the medium was cultured under CO2 concentration 5%, at 37° C. The compounds of the present invention and the target drugs to be used in the test were dissolved in DMSO, to make a test solution of a predetermined concentration. Pre-culture was conducted and medium containing cells which have entered the logarithmic growth phase was taken to wells of a 96-well culture plate. Then, a test solution containing drug of a predetermined concentration or a drug-free DMSO was added. Test solutions were taken by duplicates. Culture plate was cultured for 72 hours in an incubator, to test the growth inhibition activity. Test was conducted as follows.
(§2) 10 μL of Alamar Blue aqueous solution was added to each well, and the resultant was further cultured for 2 hours. Next, the culture plate was placed on a fluorescent micro-plate reader (Spectramax Gemeni XS; US Molecular Device), radiated at an excited wavelength of 536 nm. Fluorescent intensity was measured at 588 nm, and residual rate of L6 cells of the test solution added group, and that of the control was calculated. From the cell residual rate obtained in the above, growth inhibition rate to L6 cells was calculated, to obtain a 50% growth inhibition concentration (IC50). Growth inhibition rate (%)={(C−A)/(B−A)}×100 A: primary cell count B: cell count of control 3 days after C: cell count of wells added with a sample, 3 days after […]

[3] = tested on: Trypanosoma cruzi (Tulahuen C2C4 strain); experiment: American trypanosome protozoa growth inhibition screening test (CPRG/Nonidet, 96 hours); details: for pIC50: Trypanosoma cruzi, Tulahuen C2C4 strain in rat L6 cells, 96 hours culture, read-out: 50% growth inhibiting concentration Trypanosoma cruzi; for Selective toxicity: chemotherapy index, rat L6 cells versus American trypanosome protozoa
Procedure: In the present example, amastigote and trypomastigote infected with rat L6 cells of protozoa of Trypanosoma cruzi (Tulahuen C2C4 strain) were used. As medium used in the test, RPMI 1640 medium containing L6 cells was supplemented so that L-glutamine (200 mM) becomes 1%, fetal bovine serum becomes 10%, which was cultured under CO2 concentration 5%, at 37° C.
The compounds of the present invention to be used in the test and the positive target agent (benznidazole) were dissolved in DMSO to make a test solution of a predetermined concentration. A medium containing 5×10^3 protozoa was added to wells of a 96-well culture plate, and pre-cultured for 48 hours. After replacing the medium, test solution containing drug of a predetermined concentration or a drug-free DMSO was added. Test solutions were taken by duplicates. After culturing the culture plate in an incubator for 96 hours, growth inhibition activity was tested. Test was conducted as follows.
50 μL of CPRG/Nonidet was added to each well, and allowed to rest for 2 to 6 hours. Next, the culture plate was placed on a fluorescent micro-plate reader, and the absorbance was measured at 540 nm. Growth inhibition rate was calculated with the following formula based on the protozoan infection rate which was obtained by calculating trypanosome infection rate of test solution added group and control group, to obtain a 50% growth inhibition concentration (IC50). Growth inhibition rate (%)={1−(b−a)/(c−a)}×100 a: early infection rate b: infection rate when test solution was added c: infection rate of the control
Chemotherapy index used as an index of selective toxicity against American trypanosome protozoa was calculated with the following formula, to determine drug efficacy.

[4] = tested on: Rat derived-L6 cells (rat skeletal myoblast cell); experiment: Growth inhibition test of rat L6 cells (Alamar Blue, 72 hours); details: 72 hours culture, Table 2, read-out: 50% growth inhibiting concentration Cytotoxicity L6
Procedure: as §1, §2

[5] = STIB900, STIB 900 strain, bloodstream form, 72 hours culture
[6] = L6 cells (rat skeletal myoblasts)

SMILES	pIC50 [1, 5]	Selective toxicity [1]	IC50 at 72 h [2, 6]	pIC50 [3]	Selective toxicity [3]	pIC50 [4]	pIC50 ([1]; STIB900, 72 h)	IC50 at 72 h [2]
CCn1c(=O)c(=C2C=CN(C)C=C2)s/c1=C\c1sc2c3ccccc3ccc2[n+]1CC [A-1]	6.12	176	134 µM	4.32	2.8	–	–	–
CCn1c(=O)/c(=C2\C=CN(C)c3ccccc32)s/c1=C\c1oc2ccccc2[n+]1CC [A-2]	7.92	533	6.4 µM	6.28	10	–	–	–
CCn1c(=O)/c(=C2\SCCN2C)s/c1=C\c1sc2ccc3ccccc3c2[n+]1CC [B-1]	7.02	2030	193 µM	4.40	4.8	–	–	–
CCn1c(=O)/c(=C2\Sc3ccccc3N2C)s/c1=C\c1cccc[n+]1CCOCCOCCOC [B-5]	6.43	338	125 µM	4.54	4.3	–	–	–
CCn1c(=O)/c(=C2\Sc3ccccc3N2C)s/c1=C\c1cccc[n+]1CCOCCOCCO [B-6]	6.03	66	61.9 µM	–	–	–	–	–
CCn1c(=O)/c(=C2\Oc3ccc4ccccc4c3N2C)s/c1=C\c1scc(C)[n+]1C [B-9]	7.62	592	14.2 µM	6.66	65	–	–	–
CCn1c(=O)/c(=C2\Oc3c(ccc4ccccc34)N2C)s/c1=C\C1=[N+](CC)CCS1 [B-10]	7.46	529	18.5 µM	6.46	53	–	–	–
CCn1c(=O)/c(=c2\s/c(=C3/Sc4ccccc4N3C)c(=O)n2CC)s/c1=C\c1sc2ccccc2[n+]1C [C-1]	8.05	>15600	> 140 µM	4.85	>10	< 3.85	–	–
O=C(Cn1ccnc1[N+](=O)[O-])NCc1ccccc1 [benznidazole, reference compound]	–	–	–	6.06	–	–	–	–
Nc1nc(N)nc(Nc2ccc([As]3SCC(CO)S3)cc2)n1 (stereo not shown) [melarsoprol, reference compound]	–	1300	–	–	–	–	8.22	7.8 µM
